Assay results reported in ChEMBL document CHEMBL1122157 (J Med Chem, 1982).
pIC50: −log10 of the molar value.

These molecules were tested against T1, Dihydrofolate reductase (Gallus gallus, UniProt P00378) (assay: Evaluated for the inhibition of chicken liver Dihydrofolate reductase by using standard enzyme assay). Conditions: read-out: I50.
T1 sequence (P00378 whole entry): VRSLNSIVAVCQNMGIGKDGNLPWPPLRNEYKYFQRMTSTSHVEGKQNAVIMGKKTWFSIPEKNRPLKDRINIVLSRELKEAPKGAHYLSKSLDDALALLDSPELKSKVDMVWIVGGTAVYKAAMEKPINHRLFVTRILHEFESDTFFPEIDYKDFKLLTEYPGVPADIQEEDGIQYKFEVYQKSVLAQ
`CN(Cc1cnc2nc(N)nc(N)c2n1)c1ccc(C(=O)NC(CCCCNC(=O)OCc2ccccc2)C(=O)O)cc1` (stereo unspecified) gave a pIC50 of 6.42. For `CN(Cc1cnc2nc(N)nc(N)c2n1)c1ccc(C(=O)NC(CCCNC(=O)OCc2ccccc2)C(=O)OC(C)(C)C)cc1` (stereo unspecified), the pIC50 was 5.51. In the case of `CN(Cc1cnc2nc(N)nc(N)c2n1)c1ccc(C(=O)NC(CCCNC(=O)OCc2ccccc2)C(=O)O)cc1` (stereo unspecified), the pIC50 was 6.48. `CN(Cc1cnc2nc(N)nc(N)c2n1)c1ccc(C(=O)NC(CCCN)C(=O)O)cc1` (stereo unspecified) was tested, and the pIC50 was 6.60. `CN(Cc1cnc2nc(N)nc(N)c2n1)c1ccc(C(=O)NC(CCCCN)C(=O)O)cc1` (stereo unspecified) was tested, and the pIC50 was 6.89. `CN(Cc1cnc2nc(N)nc(N)c2n1)c1ccc(C(=O)NC(CCCCNC(=O)OCc2ccccc2)C(=O)OC(C)(C)C)cc1` (stereo unspecified) gave a pIC50 of 6.02.
